US20090285774A1, “Hepatitis C Virus Inhibitors” (Bristol-Myers Squibb Company, priority 2008, published 2009)
Where two headings read alike, the source gives them in different places.

Legend:
[1] = system: HCV replicon (strain 1b) in HUH-7 cells; assay: HCV replicon FRET assay; assay type: cell-based; details: Hepatitis C virus
From the text: An HCV replicon whole cell system was established as described by Lohmann V, Korner F, Koch J, Herian U, Theilmann L, Bartenschlager R., Science 285(5424):110-3 (1999). This system enabled us to evaluate the effects of our HCV Protease compounds on HCV RNA replication. Briefly, using the HCV strain 1b sequence described in the Lohmann paper (Assession number: AJ238799), an HCV cDNA was synthesized by Operon Technologies, Inc. (Alameda, Calif.), and the full-length replicon was then assembled in plasmid pGem9zf(+) (Promega, Madison, Wis.) using standard molecular biology techniques. The replicon consists of (i) the HCV 5′ UTR fused to the first 12 amino acids of the capsid protein, (ii) the neomycin phosphotransferase gene (neo), (iii) the IRES from encephalomyocarditis virus (EMCV), and (iv) HCV NS3 to NS5B genes and the HCV 3′ UTR. Plasmid DNAs were linearized with ScaI and RNA transcripts were synthesized in vitro using the T7 MegaScript transcription kit (Aibion, Austin, Tex.) according to manufacturer's directions. In vitro transcripts of the cDNA were transfected into the human hepatoma cell line, HUH-7. […] Resulting cell lines were characterized for positive and negative strand RNA production and protein production over time.
The HCV replicon FRET assay was developed to monitor the inhibitory effects of compounds described in the disclosure on NCV viral replication. HUH-7 cells, constitutively expressing the HCV replicon, were grown in Dulbecco's Modified Eagle Media (DMEM) (Gibco-BRL) containing 10% Fetal calf serum (FCS) (Sigma) and 1 mg/ml G418 (Gibco-BRL). Cells were seeded the night before (1.5×10^4 cells/well) in 96-well tissue-culture sterile plates. Compound and no compound controls were prepared in DMEM containing 4% FCS, 1:100 Penicillin/Streptomysin (Gibco-BRL), 1:100 L-glutamine and 5% DMSO in the dilution plate (0.5% DMSO final concentration in the assay). Compound/DMSO mixes were added to the cells and incubated for 4 days at 37° C. After 4 days, cells were first assessed for cytotoxicity using alamar Blue (Trek Diagnotstic Systems) for a CC50 reading. The toxicity of compound (CC50) was determined by adding 1/10th volume of alamar Blue to the media incubating the cells. After 4 h, the fluorescence signal from each well was read, with an excitation wavelength at 530 nm and an emission wavelength of 580 nm, using the Cytofluor Series 4000 (Perspective Biosystems). Plates were then rinsed thoroughly with Phosphate-Buffered Saline (PBS) (3 times 150 μl).

[2] = biological target: T1, HCV NS3/4A protease complex, BMS strain (genotype 1a) (UniProt P27958, species not given/STRAIN_BMS); assay: FRET peptide assay to monitor HCV NS3/4A proteolytic activity (BMS strain); assay type: biochemical
T1 construct: DNA encoding the recombinant HCV NS3/4A protease complex (amino acids 1027 to 1711) for these strains [given for H77 and J4L6S only]; These are given only for the H77 and J4L6S constructs
T1 sequence (P27958 1027-1657, stated change not applied, one chain of several): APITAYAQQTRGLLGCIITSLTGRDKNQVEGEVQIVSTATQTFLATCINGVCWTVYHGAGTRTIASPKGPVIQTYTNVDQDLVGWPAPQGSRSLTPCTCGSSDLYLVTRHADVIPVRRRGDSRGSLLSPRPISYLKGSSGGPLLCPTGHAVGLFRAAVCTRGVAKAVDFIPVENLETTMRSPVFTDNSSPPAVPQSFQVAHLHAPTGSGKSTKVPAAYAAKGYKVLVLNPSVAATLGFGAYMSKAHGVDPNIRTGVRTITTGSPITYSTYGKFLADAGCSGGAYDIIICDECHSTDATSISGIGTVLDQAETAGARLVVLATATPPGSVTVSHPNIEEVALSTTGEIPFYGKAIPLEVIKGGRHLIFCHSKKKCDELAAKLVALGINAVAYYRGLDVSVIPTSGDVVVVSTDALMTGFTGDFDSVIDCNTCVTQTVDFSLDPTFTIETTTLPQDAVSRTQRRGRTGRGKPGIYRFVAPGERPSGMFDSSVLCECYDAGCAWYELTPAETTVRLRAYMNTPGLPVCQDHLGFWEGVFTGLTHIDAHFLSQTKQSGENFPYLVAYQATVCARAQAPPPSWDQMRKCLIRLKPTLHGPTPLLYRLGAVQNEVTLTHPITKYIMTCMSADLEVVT
From the text: (§1) HCV NS3 protease complexes, derived from the BMS strain, H77 strain or J4L6S strain, were generated, as described below. These purified recombinant proteins were generated for use in a homogeneous assay (see below) to provide an indication of how effective compounds of the present disclosure would be in inhibiting HCV NS3 proteolytic activity.
Serum from an HCV-infected patient was obtained from Dr. T. Wright, San Francisco Hospital. An engineered full-length cDNA (compliment deoxyribonucleic acid) template of the HCV genome (BMS strain) was constructed from DNA fragments obtained by reverse transcription-PCR (RT-PCR) of serum RNA (ribonucleic acid) and using primers selected on the basis of homology between other genotype 1a strains. From the determination of the entire genome sequence, a genotype 1a was assigned to the HCV isolate according to the classification of Simmonds et al. (See P Simmonds, K A Rose, S Graham, S W Chan, F McOmish, B C Dow, E A Follett, P L Yap and H Marsdeni, J. Clin. Microbiol., 31(6):1493-1503 (1993)). […] The infectious clones, H77 (1a genotype) and J4L6S (1b genotype) were obtained from R. Purcell (NIH) and the sequences are published in Genbank (AAB67036, see Yanagi, M., Purcell, R. H., Emerson, S. U. and Bukh, J. Proc. Natl. Acad. Sci. U.S.A. 94(16):8738-8743 (1997); AF054247, see Yanagi, M., St Claire, M., Shapiro, M., Emerson, S. U., Purcell, R. H. and Bukh, J, Virology 244 (1), 161-172. (1998)).
The H77 and J4L6S strains were used for production of recombinant NS3/4A protease complexes. DNA encoding the recombinant HCV NS3/4A protease complex (amino acids 1027 to 1711) for these strains were manipulated as described by P. Gallinari et al. (see Gallinari P, Paolini C, Breruian D, Nardi C, Steinlkuhler C, De Francesco R. Biochemistry. 38(17);5620-32, (1999)). Briefly, a three-lysine solubilizing tail was added at the 3′-end of the NS4A coding region. The cysteine in the P1 position of the NS4A-NS4B cleavage site (amino acid 1711) was changed to a glycine to avoid the proteolytic cleavage of the lysine tag. Furthermore, a cysteine to serine mutation was introduced by PCR at amino acid position 1454 to prevent the autolytic cleavage in the NS3 helicase domain. The variant DNA fragment was cloned in the pET21b bacterial expression vector (Novagen) and the NS3/4A complex was expressed in Escherichia. coli strain BL21 (DE3) (Invitrogen) following the protocol described by P. Gallinari et al. (see Gallinari P, Breinan D, Nardi C, Brunetti M, Tomei L, Steinkuhler C, De Francesco R., J Virol. 72(8):6758-69 (1998)) with modifications. Briefly, the NS3/4A protease complex expression was induced with 0.5 millimolar (mM) Isopropyl β-D-1-thiogalactopyranoside (IPTG) for 22 hours (h) at 20° C. A typical fermentation (1 Liter (L)) yielded approximately 10 grams (g) of wet cell paste. The cells were resuspended in lysis buffer (10 mL/g) consisting of 25 mM N-(2-Hydroxyethyl)Piperazine-N′-(2-Ethane Sulfonic acid) (HEPES), pH 7.5, 20% glycerol, 500 mM Sodium Chloride (NaCl), 0.5% Triton X-100, 1 microgram/milliliter (“μg/mL”) lysozyme, 5 mM Magnesium Chloride (MgCl2), 1 μg/ml DnaseI, 5mM β-Mercaptoethanol (βME), Protease inhibitor-Ethylenediamine Tetraacetic acid (EDTA) free (Roche), homogenized and incubated for 20 minutes (min) at 4° C. The homogenate was sonicated and clarified by ultra-centrifugation at 235000 g for 1 hour (h) at 4° C. Imidazole was added to the supernatant to a final concentration of 15 mM and the pH adjusted to 8.0. The crude protein extract was loaded on a Nickel-Nitrilotriacetic acid (Ni-NTA) column pre-equilibrated with buffer B (25 mM HEPES, pH 8.0, 20% glycerol, 500 mM NaCl, 0.5% Triton X-100, 15 mM imidazole, 5 mM βMB). The sample was loaded at a flow rate of 1 mL/min. The column was washed with 15 column volumes of buffer C (same as buffer B except with 0.2% Triton X-100). The protein was eluted with 5 column volumes of buffer D (same as buffer C except with 200 mM Imidazole). […]

[3] = system: human pancreatic chymotrypsin; assay: Specificity assay, chymotrypsin; assay type: biochemical; details: read-out: Chymotrypsin activity in the specificity assays (IC50)
Experimental: (§2) The specificities of compounds of the present disclosure were determined against a variety of serine proteases: human neutrophil elastase (HNE), porcine pancreatic elastase (PPE) and human pancreatic chymotrypsin and one cysteine protease: human liver cathepsin B. In all cases a 96-well plate format protocol using a fluorometric Amino-Methyl-Coumarin (AMC) substrate specific for each enzyme was used as described previously (PCT Patent Application No. WO 00/09543) with some modifications to the serine protease assays. All enzymes were purchased from Sigma, EMDbiosciences while the substrates were from Bachem, Sigma and EMDbiosciences.
(§3) Compound concentrations varied from 100 to 0.4 μM depending on their potency. The enzyme assays were each initiated by addition of substrate to enzyme-inhibitor pre-incubated for 10 min at room temperature and hydrolysis to 15% conversion as measured on cytofluor. […]
(§4) The percentage of inhibition was calculated using the formula: […]

[4] = biological target: T2, HCV NS3/4A protease complex, J4L6S strain (1b genotype) (Hepatitis C virus genotype 1b, UniProt O92972, C1454S/C1711G); assay: FRET peptide assay to monitor HCV NS3/4A proteolytic activity (J4L6S strain); assay type: biochemical
T2 construct: DNA encoding the recombinant HCV NS3/4A protease complex (amino acids 1027 to 1711) for these strains; inferred from pET21b vector and Ni-NTA purification; made in house; host or cells: Escherichia coli BL21 (DE3), pET21b
T2 sequence (O92972 1027-1711 C1454S/C1711G, one chain of several): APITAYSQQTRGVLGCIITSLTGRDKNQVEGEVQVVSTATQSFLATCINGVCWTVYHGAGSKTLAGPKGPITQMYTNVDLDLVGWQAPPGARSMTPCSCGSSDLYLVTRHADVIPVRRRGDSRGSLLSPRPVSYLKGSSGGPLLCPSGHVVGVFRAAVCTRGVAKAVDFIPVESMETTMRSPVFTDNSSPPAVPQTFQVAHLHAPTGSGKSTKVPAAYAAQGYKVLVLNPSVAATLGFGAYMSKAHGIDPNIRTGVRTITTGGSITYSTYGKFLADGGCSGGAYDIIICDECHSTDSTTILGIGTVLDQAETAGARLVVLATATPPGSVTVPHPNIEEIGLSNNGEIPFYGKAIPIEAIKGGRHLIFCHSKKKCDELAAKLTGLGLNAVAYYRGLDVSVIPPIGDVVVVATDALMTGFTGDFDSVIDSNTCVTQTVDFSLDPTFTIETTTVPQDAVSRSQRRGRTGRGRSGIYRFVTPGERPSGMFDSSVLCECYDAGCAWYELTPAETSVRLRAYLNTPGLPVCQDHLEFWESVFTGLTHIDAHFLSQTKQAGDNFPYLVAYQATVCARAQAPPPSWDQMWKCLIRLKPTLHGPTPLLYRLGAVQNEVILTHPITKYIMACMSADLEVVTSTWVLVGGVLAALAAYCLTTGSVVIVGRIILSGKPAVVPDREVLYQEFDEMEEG
From the text: as §1
(§5) Serum from an HCV-infected patient was obtained from Dr. T. Wright, San Francisco Hospital. An engineered full-length cDNA (compliment deoxyribonucleic acid) template of the HCV genome (BMS strain) was constructed from DNA fragments obtained by reverse transcription-PCR (RT-PCR) of serum RNA (ribonucleic acid) and using primers selected on the basis of homology between other genotype 1a strains. From the determination of the entire genome sequence, a genotype 1a was assigned to the HCV isolate according to the classification of Simmonds et al. (See P Simmonds, K A Rose, S Graham, S W Chan, F McOmish, B C Dow, E A Follett, P L Yap and H Marsdeni, J. Clin. Microbiol., 31(6):1493-1503 (1993)). […]

[5] = biological target: T3, human neutrophil elastase (HNE) (Homo sapiens, UniProt P08246); assay: Specificity assay, human neutrophil elastase; assay type: biochemical; details: read-out: HLE activity in the specificity assays (IC50)
T3 sequence (P08246 30-267): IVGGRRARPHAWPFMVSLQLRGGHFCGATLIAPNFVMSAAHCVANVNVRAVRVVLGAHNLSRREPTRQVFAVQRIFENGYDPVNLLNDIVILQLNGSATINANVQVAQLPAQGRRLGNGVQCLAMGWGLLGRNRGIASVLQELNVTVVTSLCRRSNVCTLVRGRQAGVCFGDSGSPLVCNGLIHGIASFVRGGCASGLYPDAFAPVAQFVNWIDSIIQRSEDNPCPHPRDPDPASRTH
Experimental: as §2, §3, §4

human liver cathepsin B = biological target: T4, human liver cathepsin B (Homo sapiens, UniProt P07858); assay: Specificity assay, cathepsin B; assay type: biochemical; details: read-out: Cathepsin B activity in the specificity assays (IC50)
T4 construct: host or cells: human liver (from the name)
Experimental: as §2, §3, §4

[6] = biological target: porcine pancreatic elastase (PPE) (Sus scrofa, UniProt P00772); assay: Specificity assay, porcine pancreatic elastase; assay type: biochemical; details: read-out: PPE activity in the specificity assays (IC50)
Sequence of porcine pancreatic elastase (PPE) (P00772 27-266): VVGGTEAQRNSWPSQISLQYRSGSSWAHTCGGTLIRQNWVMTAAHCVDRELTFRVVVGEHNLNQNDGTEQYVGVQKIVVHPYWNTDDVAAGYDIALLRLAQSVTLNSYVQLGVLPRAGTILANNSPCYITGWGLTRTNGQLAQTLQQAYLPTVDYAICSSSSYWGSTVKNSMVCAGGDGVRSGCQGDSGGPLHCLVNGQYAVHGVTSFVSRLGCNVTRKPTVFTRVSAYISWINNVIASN
Experimental: as §2, §3, §4

[7] = biological target: T5, HCV NS3/4A protease complex, H77 strain (1a genotype) (Hepatitis C virus genotype 1a, UniProt P27958, C1454S/C1711G); assay: FRET peptide assay to monitor HCV NS3/4A proteolytic activity (H77 strain); assay type: biochemical
T5 construct: DNA encoding the recombinant HCV NS3/4A protease complex (amino acids 1027 to 1711) for these strains; inferred from pET21b vector and Ni-NTA purification; made in house; host or cells: Escherichia coli BL21 (DE3), pET21b
T5 sequence (P27958 1027-1711 C1454S/C1711G, one chain of several): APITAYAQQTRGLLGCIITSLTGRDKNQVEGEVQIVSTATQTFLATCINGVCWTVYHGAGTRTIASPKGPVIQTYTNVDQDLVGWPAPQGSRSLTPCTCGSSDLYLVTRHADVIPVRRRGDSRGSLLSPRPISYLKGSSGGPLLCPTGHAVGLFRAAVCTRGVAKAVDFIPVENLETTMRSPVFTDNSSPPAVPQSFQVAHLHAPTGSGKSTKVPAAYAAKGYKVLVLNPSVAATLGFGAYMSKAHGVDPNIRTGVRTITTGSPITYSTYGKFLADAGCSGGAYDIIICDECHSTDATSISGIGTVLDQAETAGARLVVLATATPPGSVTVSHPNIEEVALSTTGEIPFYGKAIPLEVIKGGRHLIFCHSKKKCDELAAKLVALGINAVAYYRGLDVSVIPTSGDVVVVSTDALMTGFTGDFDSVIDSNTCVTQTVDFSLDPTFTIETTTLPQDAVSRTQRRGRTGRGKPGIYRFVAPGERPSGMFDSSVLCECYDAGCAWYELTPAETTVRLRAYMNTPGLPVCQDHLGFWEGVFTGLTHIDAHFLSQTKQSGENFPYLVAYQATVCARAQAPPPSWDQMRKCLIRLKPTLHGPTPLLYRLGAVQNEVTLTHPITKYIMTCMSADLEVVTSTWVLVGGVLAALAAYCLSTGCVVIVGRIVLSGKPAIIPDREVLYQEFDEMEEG
From the text: as §1, §5

[8] = Huh-7, HCV replicon, value, read-out: EC50 (range or value)
[9] = NS3/4A BMS strain, value, read-out: IC50 (range or value)
[10] = Huh-7, HCV replicon, activity range, read-out: EC50 (range or value)
[11] = NS3/4A BMS strain, activity range, read-out: IC50 (range or value)

SMILES	EC50 [1, 8] [nM]	IC50 [2, 9] [nM]	EC50 [1, 10] [nM]	IC50 [2, 11] [nM]	also measured
C=C[C@@H]1C[C@]1(NC(=O)C1CC(Oc2cc(-c3ccccc3)nc3cc(OC)ccc23)CN1C(=O)[C@@H](Nc1nc(CC)cs1)C(C)(C)C)C(=O)NS(=O)(=O)C1CC1 (stereo partly shown) [Compound 3]	14.6	4.55			
C=C[C@@H]1C[C@]1(NC(=O)C1CC(Oc2cc(-c3ccccc3)nc3cc(OC)ccc23)CN1C(=O)[C@@H](Nc1nc(C(F)(F)F)cs1)C(C)(C)C)C(=O)NS(=O)(=O)C1CC1 (stereo partly shown) [Compound 5]			14 to 100	4 to 20	
C=C[C@@H]1C[C@]1(NC(=O)[C@@H]1C[C@@H](Oc2cc(-c3cccs3)cc(-c3ccccc3)n2)CN1C(=O)C(Nc1cc(C)cc(C)n1)C(C)C)C(=O)NS(=O)(=O)C1CC1 (single isomer, unassigned) [Compound 1B]			100 to 1000	20 to 200	
C=C[C@@H]1C[C@]1(NC(=O)C1CC(Oc2cc(-c3ccccc3)nc3cc(OC)ccc23)CN1C(=O)[C@@H](Nc1nc(C(C)(C)C)cs1)C(C)(C)C)C(=O)NS(=O)(=O)C1CC1 (stereo partly shown) [Compound 4]			14 to 100	4 to 20	
C=C[C@@H]1C[C@]1(NC(=O)[C@@H]1C[C@@H](OC(=O)N2Cc3cccc(F)c3C2)CN1C(=O)C(Nc1cc(C)cc(C)n1)C(C)C)C(=O)NS(=O)(=O)C1CC1 (single isomer, unassigned) [Compound 2B]	3480	135			
C=C[C@@H]1C[C@]1(NC(=O)[C@@H]1C[C@@H](Oc2cc(-c3cccs3)cc(-c3ccccc3)n2)CN1C(=O)C(Nc1cc(C)cc(C)n1)C(C)C)C(=O)NS(=O)(=O)C1CC1 (single isomer, unassigned) [Compound 1A]	65.3	14			
C=C[C@@H]1C[C@]1(NC(=O)[C@@H]1C[C@@H](OC(=O)N2Cc3cccc(F)c3C2)CN1C(=O)C(Nc1cc(C)cc(C)n1)C(C)C)C(=O)NS(=O)(=O)C1CC1 (single isomer, unassigned) [Compound 2A]			14 to 100	4 to 20	EC50 ([1]; Huh-7, replicon FRET assay, read-out: EC50 value in the replicon FRET assay): 69 nM; IC50 [3]: 2100 nM; IC50 [4]: 1.2 nM; IC50 [5]: 4600 nM; IC50 (human liver cathepsin B): > 100000 nM; IC50 [6]: > 100000 nM; IC50 ([2]; BMS strain, read-out: IC50 against the NS3/4A BMS strain in the enzyme assay): 8.9 nM; IC50 [7]: 1.4 nM
